Test results as given in patent publication US9243254B2, “Method for transforming a bacterium belonging to the streptococcus genus by natural competence” (priority 2009, dated 2016).

What was measured:
Experiment in all cases: Natural transformation in CDM upon addition of synthetic peptide
Format in all cases: cell-based, Streptococcus thermophilus
S. thermophilus DGCC7710 = conditions: 1 μM LPYFAGCL, 1 μg/mL pUC18_stu0855::P32cat
Procedure: (§1) Similarly to the protocol used in example 4, various S. thermophilus strains, including LMD-9, CNRZ1066 and LMG18311 used as controls, were pre-cultivated in M17-lactose medium. The cells of the precultures were harvested (5000 g, 9 minutes, 20° C.) and washed twice in CDM and then resuspended in CDM. The washed cells were diluted in fresh CDM medium to obtain an optical density of 0.05, and then incubated at 37° C. After 1.5 h of incubation, in one set of experiment, 1 μM of one of the tested synthetic peptides (LPYFAGCL) (SEQ ID NO: 85) and 1 μg/mL of pGIUD0855cat DNA were added to the culture, whereas 1 μg/mL of DNA but no synthetic peptide was added to the second set of experiment. Plasmid pGIUD0855cat is a pUC18-derivative containing a chloramphenicol resistance cassette flanked by 1-kb fragments corresponding to the upstream and downstream regions of stu0855. Upon transformation, it promotes the genetic replacement of stu0855 by P32-cat through homologous recombination (FIG. 7). The cultures were grown during 6 hours and serial dilutions were plated on the surface of M17-lactose agar medium containing 5 μg/mL of chloramphenicol to measure transformation efficiency. Transformed S. thermophilus cells were selected at 37° C.; when transformants were obtained, the transformation efficiency was calculated and is given in Table 9.

S. thermophilus DGCC7666 = conditions: 1 μM LPYFAGCL, 1 μg/mL pUC18_stu0855::P32cat
Procedure: as §1

S. thermophilus DGCC7853 = conditions: 1 μM LPYFAGCL, 1 μg/mL pUC18_stu0855::P32cat
Procedure: as §1

S. thermophilus DGCC7785 = conditions: 1 μM LPYFAGCL, 1 μg/mL pUC18_stu0855::P32cat
Procedure: as §1

S. thermophilus DGCC782 = conditions: 1 μM LPYFAGCL, 1 μg/mL pUC18_stu0855::P32cat
Procedure: as §1

S. thermophilus DGCC7809 = conditions: 1 μM LPYFAGCL, 1 μg/mL pUC18_stu0855::P32cat
Procedure: as §1

S. thermophilus DGCC7694 = conditions: 1 μM LPYFAGCL, 1 μg/mL pUC18_stu0855::P32cat
Procedure: as §1

S. thermophilus DGCC3367 = conditions: 1 μM LPYFAGCL, 1 μg/mL pUC18_stu0855::P32cat
Procedure: as §1

S. thermophilus DGCC7909 = conditions: 1 μM LPYFAGCL, 1 μg/mL pUC18_stu0855::P32cat
Procedure: as §1

S. thermophilus DGCC7854 = conditions: 1 μM LPYFAGCL, 1 μg/mL pUC18_stu0855::P32cat
Procedure: as §1

S. thermophilus DGCC7879 = conditions: 1 μM LPYFAGCL, 1 μg/mL pUC18_stu0855::P32cat
Procedure: as §1

S. thermophilus DGCC715 = conditions: 1 μM LPYFAGCL, 1 μg/mL pUC18_stu0855::P32cat
Procedure: as §1

S. thermophilus DGCC7790 = conditions: 1 μM LPYFAGCL, 1 μg/mL pUC18_stu0855::P32cat
Procedure: as §1

S. thermophilus DGCC7891 = conditions: 1 μM LPYFAGCL, 1 μg/mL pUC18_stu0855::P32cat
Procedure: as §1

S. thermophilus DGCC7773 = conditions: 1 μM LPYFAGCL, 1 μg/mL pUC18_stu0855::P32cat
Procedure: as §1

S. thermophilus DGCC7796 = conditions: 1 μM LPYFAGCL, 1 μg/mL pUC18_stu0855::P32cat
Procedure: as §1

S. thermophilus CNRZ1066 = test system: S. thermophilus CNRZ1066
Procedure: Similarly to the protocol used in example 4, strains LMD-9, LMG18311, CNRZ1066 and JIM8777 were pre-cultivated in M17-lactose medium. The cells of the precultures were harvested (5000 g, 9 minutes, 20° C.) and washed twice in CDM and then resuspended in CDM. The washed cells were diluted in fresh CDM medium to obtain an optical density of 0.05, and then incubated at 37° C. After 1.5 h of incubation, in one set of experiment, 1 μM of one of the tested synthetic peptides and 1 μg/mL of pGIUD0855ery DNA (in case of S. thermophilus strains), or 1 μg/ml of pG+host09 DNA (in case of S. salivarius strains) were added to the culture, whereas 1 μg/mL of DNA but no synthetic peptide was added to the second set of experiment. The cultures were grown during 6 hours and serial dilutions were plated on the surface of M17-lactose agar medium containing 2.5 μg/mL of erythromycin to measure transformation efficiency. Transformed S. thermophilus and S. salivarius cells are selected at 37° C. and 29° C., respectively.
as §1
Day 2: • Centrifuge Day 1—culture (centrifugation parameters: 5000 g, 9 minutes, 15° C.) and perform two washing steps with one volume (10 mL) of CDM (centrifugation parameters: 5000 g, 9 minutes, 15° C.). • Dilute the culture in 10 mL CDM to obtain an OD600nm of 0.05. • A small volume of S. thermophilus cultures (300 μL) is then transferred in white microplate with a transparent bottom (655095; Greiner, Alphen aid Rijn, The Netherlands) and is grown at 37° C. Luminescence at 595 nm and optical density at 600 nm are recorded with the automatic Synergy HT multi-mode microplate reader. The luciferase activity catalysed by LuxAB requires the presence of nonanal as substrate. In this experimental set-up, nonanal (Acros Organics ref. 204-688-5) is supplied to the cultures by placing 50 μL of a solution containing 1% nonanal diluted in mineral oil in the spaces between the wells of a covered microplate (11). […] The luminescence and absorbance are scanned every 10 minutes during 6 hours. • To perform a competence experiment, 1 μg of donor DNA is added in the 300 μL samples in the beginning of incubation. […]

Substance	Transformation rate, With peptide addition (S. thermophilus DGCC7710)	Transformation rate, With peptide addition (S. thermophilus DGCC7666)	Transformation rate, With peptide addition (S. thermophilus DGCC7853)	Transformation rate, With peptide addition (S. thermophilus DGCC7785)	Transformation rate, With peptide addition (S. thermophilus DGCC782)	Transformation rate, With peptide addition (S. thermophilus DGCC7809)	Transformation rate, With peptide addition (S. thermophilus DGCC7694)	Transformation rate, With peptide addition (S. thermophilus DGCC3367)	Transformation rate, With peptide addition (S. thermophilus DGCC7909)	Transformation rate, With peptide addition (S. thermophilus DGCC7854)	Transformation rate, With peptide addition (S. thermophilus DGCC7879)	Transformation rate, With peptide addition (S. thermophilus DGCC715)	Transformation rate, With peptide addition (S. thermophilus DGCC7790)	Transformation rate, With peptide addition (S. thermophilus DGCC7891)	Transformation rate, With peptide addition (S. thermophilus DGCC7773)	Transformation rate, With peptide addition (S. thermophilus DGCC7796)	Transformation rate, With peptide addition (S. thermophilus CNRZ1066; 1 μM LPYFAGCL, 1 μg/mL pUC18_stu0855::P32cat, chloramphenicol selection)	Transformation rate, With peptide addition (S. thermophilus CNRZ1066; 1 μM PYFAGCL, 1 μg/mL pGIUD0855ery)	Complementation of the transformation defect in CDM (S. thermophilus CNRZ1066; 1 μM peptide, result in words)
LPYFAGCL (fragment) [synthetic peptide corresponding to a C-terminal fragment of Shp316]	1 × 10^−2	4.2 × 10^−2	4.9 × 10^−4	4.1 × 10^−5	2 × 10^−3	5.8 × 10^−4	3.9 × 10^−2	1.8 × 10^−3	4.5 × 10^−3	5.3 × 10^−3	8.6 × 10^−3	1.2 × 10^−2	4.3 × 10^−2	1.4 × 10^−4	1.5 × 10^−1	6.9 × 10^−2	3 × 10^−2		
PYFAGCL (fragment)																		3.69 × 10^−4	complements the transformation defect
